# Measured values from the supplement of paper PMC11061612.
# Tests used:
# Assay in all cases: combination Emax (second highest fraction inhibited in the dose matrix, 72 h); higher = more inhibition; extreme values may be limits of the assay
# [1] = tested on: MOLM-13 (Acute Myeloid Leukemia)
# In short: (§1)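 Cell lines grown in DMEM/F12 or RPMI with 10% FBS were plated in 1536-well plates and held 24 hours at 37°C, 5% CO2 before 72 hours of exposure to two-drug dose matrices, with DMSO typically at 0.2%. CellTiter-Glo 2.0 luminescence gave viability, which was converted to inhibition. Vehicle wells were set to 0 and blank wells to 1. Combination Emax is the second-highest inhibition in the matrix, and Bliss excess is the observed combination effect minus the expected EA + EB − EA·EB, where EA and EB are the single-agent effects.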
# [2] = tested on: NCI-H929 (Plasma Cell Myeloma)
# In short: as §1
# [3] = tested on: KY821 (Acute Myeloid Leukemia)
# In short: as §1
# [4] = tested on: JHH-4 (Hepatocellular Carcinoma)
# In short: as §1
# [5] = tested on: NCI-H520 (Squamous Cell Lung Carcinoma)
# In short: as §1
# [6] = tested on: KMS-12-BM (Plasma Cell Myeloma)
# In short: as §1
# [7] = tested on: SJSA-1 (Osteosarcoma)
# In short: as §1
# [8] = tested on: G-361 (Melanoma)
# In short: as §1
# [9] = tested on: IM-95 (Gastric Carcinoma)
# In short: as §1
# [10] = tested on: KP-3 (Pancreatic Carcinoma)
# In short: as §1
# [11] = tested on: ST486 (Burkitt's Lymphoma)
# In short: as §1
# [12] = tested on: CHSA8926 (Chondrosarcoma)
# In short: as §1
# [13] = tested on: NCI-H526 (Small Cell Lung Carcinoma)
# In short: as §1
# [14] = tested on: HCC1419 (Breast Carcinoma)
# In short: as §1
# [15] = tested on: H9 (T-Cell Non-Hodgkin's Lymphoma)
# In short: as §1
# [16] = tested on: KU812 (Chronic Myelogenous Leukemia)
# In short: as §1
# [17] = tested on: PC-3 (Prostate Carcinoma)
# In short: as §1
# [18] = tested on: NCCIT (Other Solid Carcinomas)
# In short: as §1
# [19] = tested on: MOG-G-CCM (Low Grade Glioma)
# In short: as §1
# [20] = tested on: 8505C (Thyroid Gland Carcinoma)
# In short: as §1
SMILES,combination Emax [1],combination Emax [2],combination Emax [3],combination Emax [4],combination Emax [5],combination Emax [6],combination Emax [7],combination Emax [8],combination Emax [9],combination Emax [10],combination Emax [11],combination Emax [12],combination Emax [13],combination Emax [14],combination Emax [15],combination Emax [16],combination Emax [17],combination Emax [18],combination Emax [19],combination Emax [20]
"COc1cc2c(cc1OCCCCCOc1cc3c(cc1OC)C(=O)N1C=C(C)C[C@H]1C=N3)N=C[C@@H]1CC(C)=CN1C2=O [SG3199] + O=C(c1cc(Cc2n[nH]c(=O)c3ccccc23)ccc1F)N1CCN(C(=O)C2CC2)CC1 [Olaparib] (first compound max 0.001 µM, 7x7, partner max 10 µM)",0.554,0.192,0.101,0.149,0.118,0.136,0.159,0.0716,0.0954,0.027,0.103,0.355,0.503,0.0746,0.0468,0.192,0.159,0.0982,0.0595,0.202
"CCc1c2c(nc3ccc(O)cc13)-c1cc3c(c(=O)n1C2)COC(=O)[C@]3(O)CC [SN-38] + CN(C)CCCOc1ccc(-c2ccc3ncc4c(c3c2)n(C2CCOCC2)c(=O)n4C)cn1 [AZD0156] (first compound max 0.3 µM, 7x7, partner max 1 µM)",1,0.869,0.998,0.905,0.786,0.96,0.673,0.324,0.499,0.0449,0.733,0.319,1,0.444,1,0.72,0.688,0.246,0.429,0.87
"C[C@@H](c1ccc2nccn2c1)n1nnc2ncc(-c3cnn(C)c3)nc21 [Savolitinib] + CC1(C)CCC(CN2CCN(c3ccc(C(=O)NS(=O)(=O)c4ccc(NCC5CCOCC5)c([N+](=O)[O-])c4)c(Oc4cnc5[nH]ccc5c4)c3)CC2)=C(c2ccc(Cl)cc2)C1 [Venetoclax] (first compound max 1 µM, 7x7, partner max 1 µM)",0.923,0.261,0.895,0.539,0.138,0.97,0.109,0.106,0.333,0.131,0.118,0.29,0.621,0.268,0.155,0.245,0.121,0.182,0.204,0.12
"C[C@@H](c1ccc2nccn2c1)n1nnc2ncc(-c3cnn(C)c3)nc21 [Savolitinib] + Cc1c2c(nn1C)CSCc1cc(n(C)n1)CSc1cc(c3ccccc3c1)OCCCc1c(C(=O)O)n(C)c3c-2c(Cl)ccc13 [AZD5991] (first compound max 1 µM, 7x7, partner max 1 µM)",1,1,1,0.182,0.208,1,0.265,0.358,0.732,0.235,0.483,0.318,0.43,0.255,0.342,0.708,0.121,0.457,0.212,0.173
"Cn1cnc2c(F)c(Nc3ccc(Br)cc3Cl)c(C(=O)NOCCO)cc21 [Selumetinib] + C=CCn1c(=O)c2cnc(Nc3ccc(N4CCN(C)CC4)cc3)nc2n1-c1cccc(C(C)(C)O)n1 [AZD1775] (first compound max 10 µM, partner max 1 µM)",1,0.684,1,0.728,0.295,0.916,0.449,0.826,0.453,0.274,0.978,0.556,0.69,0.0435,1,0.965,0.165,0.773,0.357,0.425
"Cn1cnc2c(F)c(Nc3ccc(Br)cc3Cl)c(C(=O)NOCCO)cc21 [Selumetinib] + CC(C)n1c(=O)n(C)c2cnc3cc(F)c(-c4ccc(OCCCN5CCCCC5)nc4)cc3c21 [AZD1390] (first compound max 10 µM, 7x7, partner max 0.3 µM)",0.767,0.611,0.66,0.605,0.147,0.295,0.307,0.674,0.222,0.15,0.455,0.185,0.0826,0.152,0.978,0.949,0.0591,0.0608,0.125,0.584
"Cn1cnc2c(F)c(Nc3ccc(Br)cc3Cl)c(C(=O)NOCCO)cc21 [Selumetinib] + CCN(CCO)CCCOc1ccc2c(Nc3cc(CC(=O)Nc4cccc(F)c4)[nH]n3)ncnc2c1 [AZD2811] (first compound max 10 µM, 7x7, partner max 1 µM)",0.999,0.698,0.843,0.63,0.17,0.397,0.384,0.798,0.519,0.202,0.852,0.139,0.32,0.113,1,0.951,0.141,0.109,0.457,0.388
"Cn1cnc2c(F)c(Nc3ccc(Br)cc3Cl)c(C(=O)NOCCO)cc21 [Selumetinib] + C[C@@H]1COCCN1C2=NC(=NC(=C2)C3(CC3)[S@](=N)(=O)C)C4=C5C=CNC5=NC=C4 [AZD6738] (first compound max 10 µM, 7x7, partner max 10 µM)",1,0.882,0.944,0.752,0.406,0.865,0.559,0.848,0.304,0.156,0.877,0.404,0.427,0.174,1,0.969,0.39,0.649,0.502,0.515
"CC1(C)CCC(CN2CCN(c3ccc(C(=O)NS(=O)(=O)c4ccc(NCC5CCOCC5)c([N+](=O)[O-])c4)c(Oc4cnc5[nH]ccc5c4)c3)CC2)=C(c2ccc(Cl)cc2)C1 [Venetoclax] + C1CN(CCC1(C(=O)N[C@@H](CCO)C2=CC=C(C=C2)Cl)N)C3=NC=NC4=C3C=CN4 [Capivasertib] (first compound max 1 µM, 7x7, partner max 3 µM)",1,0.997,1,0.119,0.609,1,0.31,0.159,0.398,0.137,0.759,0.331,0.769,0.53,0.541,0.48,0.365,0.398,0.348,0.139
"CC1(C)CCC(CN2CCN(c3ccc(C(=O)NS(=O)(=O)c4ccc(NCC5CCOCC5)c([N+](=O)[O-])c4)c(Oc4cnc5[nH]ccc5c4)c3)CC2)=C(c2ccc(Cl)cc2)C1 [Venetoclax] + C=CCn1c(=O)c2cnc(Nc3ccc(N4CCN(C)CC4)cc3)nc2n1-c1cccc(C(C)(C)O)n1 [AZD1775] (first compound max 1 µM, partner max 1 µM)",1,0.659,1,0.343,0.647,1,0.453,0.589,0.299,0.307,0.978,0.57,0.835,0.254,0.966,0.776,0.29,0.907,0.688,0.244
"CC1(C)CCC(CN2CCN(c3ccc(C(=O)NS(=O)(=O)c4ccc(NCC5CCOCC5)c([N+](=O)[O-])c4)c(Oc4cnc5[nH]ccc5c4)c3)CC2)=C(c2ccc(Cl)cc2)C1 [Venetoclax] + CCN(CCO)CCCOc1ccc2c(Nc3cc(CC(=O)Nc4cccc(F)c4)[nH]n3)ncnc2c1 [AZD2811] (first compound max 1 µM, 7x7, partner max 1 µM)",1,0.391,0.978,0.205,0.258,1,0.222,0.285,0.412,0.148,0.925,0.34,0.928,0.212,0.888,0.65,0.245,0.282,0.485,0.211
"CC1(C)CCC(CN2CCN(c3ccc(C(=O)NS(=O)(=O)c4ccc(NCC5CCOCC5)c([N+](=O)[O-])c4)c(Oc4cnc5[nH]ccc5c4)c3)CC2)=C(c2ccc(Cl)cc2)C1 [Venetoclax] + CN(C)CCCOc1ccc(-c2ccc3ncc4c(c3c2)n(C2CCOCC2)c(=O)n4C)cn1 [AZD0156] (first compound max 1 µM, 7x7, partner max 1 µM)",0.898,0.691,0.926,0.234,0.354,1,0.177,0.115,0.19,0.146,0.77,0.212,0.856,0.289,0.156,0.403,0.21,0.275,0.385,0.2
